# Test results as given in PMC11641365, “Evaluation of In Vitro Biological Activity of Flavanone/Chromanone Derivatives: Molecular Analysis of Anticancer Mechanisms in Colorectal Cancer” (International Journal of Molecular Sciences, 2024).
# Tests used:
# Format in all cases: cell-based, human
# SW620 = test: Reactive nitrogen species level, DAF-FM probe; settings: compound at IC50, 24 h
# Method: (§1) Diaminofluorescein-FM diacetate (DAF-FM diacetate, Invitrogen, Carlsbad, CA, USA), a cell-permeable fluorescent probe, is widely utilized for the detection and quantification of reactive nitrogen species (RNS), primarily nitric oxide (NO). […] Upon interaction with NO, however, it undergoes a chemical transformation resulting in the formation of a highly fluorescent benzotriazole derivative with excitation and emission maxima at 495 and 515 nm, respectively.
# (§2) Cells were seeded in black 96-well fluorometric microplates at a density of 10 × 10^3 cells/mL. […] Following compound incubation, the medium was removed, and the cell monolayers were washed twice with HBSS (140 mM NaCl, 5 mM KCl, 0.8 mM MgCl2, 1.8 mM CaCl2, 1 mM Na2HPO4, 10 mM HEPES, and 1% glucose). […] Fluorescence measurements were conducted using a Perkin-Elmer LS-5B spectrofluorometer (MA, USA) at the following excitation and fluorescence emission wavelengths: λex = 495 nm/λem = 515 nm. The fluorescence intensity of control cells was arbitrarily assigned a value of 100%. The results were expressed as percentages of control, calculated by comparing the fluorescence intensity ratio of the test samples to controls (100%). The fluorescence of samples was denoted as Δf in relation to the control.
# HT-29 = test: Reactive nitrogen species level, DAF-FM probe; settings: compound at IC50, 24 h
# Method: as §1, §2
# Caco-2 [1] = test: Intracellular GSH level, monochlorobimane (MCB) probe; settings: compound at IC50, 24 h, vs control
# Method: The spectrofluorimetric method with monochlorobimane (MCB; Sigma-Aldrich; St. Louis, MO, USA) was used to determine GSH. Monochlorobimane reacts with glutathione in a reaction catalyzed by cellular glutathione S-transferase. The reaction produces a fluorescent bimane-glutathione conjugate (GSH-MCB). A major advantage of MCB is its ability to penetrate the cell membrane, which is why it is used as a probe to determine the amount of GSH in living cells.
# Cells were seeded in black 96-well fluorometric microplates at a density of 10 × 10^3 cells/mL. […] Following compound incubation, the medium was removed, and the cell monolayers were washed twice with HBSS (140 mM NaCl, 5 mM KCl, 0.8 mM MgCl2, 1.8 mM CaCl2, 1 mM Na2HPO4, 10 mM HEPES, and 1% glucose). A solution of MCB at a final concentration of 40 μM was added to each well and incubated in a CO2 cell culture incubator at 37 °C for 20 min. A 40 mM MCB stock solution was prepared by dissolving 9 mg of the reagent in 1 mL of absolute ethanol. Fluorescence was measured using a Perkin-Elmer LS-5B spectrofluorometer (Waltham, MA, USA) at the following excitation and fluorescence emission wavelengths: λex = 380 nm/λem = 470 nm. After incubation with MCB, the cells were lysed with 50 μL of lysis buffer (10 mM TRIS-HCl; pH 8 containing 0.1% Triton X-100). In order to normalize the number of cells in individual samples, the amount of DNA was determined by adding 50 μL of ethidium bromide (EB, final concentration 0.2 mM) to each well after measuring the MCB fluorescence and measuring the EB fluorescence at an excitation wavelength of λex = 530 nm and an emission wavelength of λem = 590 nm. The results obtained using the standard curve were converted to nM of GSH.
# LoVo = test: Mitochondrial membrane potential (ΔΨm), JC-1 probe; settings: compound at IC50, vs control
# Source text: (§3) Changes in mitochondrial potential in cancer cells exposed to the tested derivatives were monitored using the fluorescent probe JC-1. In non-apoptotic cells, JC-1 aggregates emit red-orange fluorescence. During changes in mitochondrial membrane potential, such as those associated with the initiation of PCD stages (both hyperpolarization and depolarization of mitochondrial membranes), JC-1 is converted to monomers, emitting green fluorescence.
# (§4) 5,5,6,6-Tetrachloro-1,1,3,3-tetraethylbenzimidazolylcarbocyanine iodide (JC-1) is one of the most reliable fluorescent probes used to assess changes in mitochondrial membrane potential (ΔΨ). In living cells with intact mitochondrial membranes, the lipophilic, cationic dye JC-1 penetrates the negatively charged mitochondrial matrix as a monomer, where it forms fluorescent aggregates with red-orange fluorescence (λex = 514 nm, λem = 590). […] The fluorescence ratio of aggregates (λem = 590 nm) and monomers (λem = 529 nm)—590 nm/529 nm—reflects the level of damage to the mitochondrial membrane.
# (§5) Cells were seeded in black 96-well fluorometric microplates at a density of 10 × 10^3 cells/mL. […] Following treatment, the medium was removed, and the cell monolayers were washed twice with HBSS (140 mM NaCl, 5 mM KCl, 0.8 mM MgCl2, 1.8 mM CaCl2, 1 mM Na2HPO4, 10 mM HEPES, and 1% glucose). Then, 50 μL of a JC-1 solution in HBSS was added to each well, and the cells were incubated for 30 min in the dark at 37 °C (final JC-1 concentration 5 μM). After removing the fluorescent dye and replacing it with fresh HBSS, fluorescence measurements were taken using a Perkin-Elmer LS-5B spectrofluorometer (Perkin-Elmer LS-5B spectrofluorometer, Waltham, MA, USA). The excitation and emission wavelengths for JC-1 monomers were 514 nm and 529 nm, respectively, while for aggregates, they were 514 nm and 590 nm. The results were expressed as a percentage change in the fluorescence ratio of JC-1 aggregates to JC-1 monomers compared to the control, which was set at 100%.
# Caco-2 [2] = test: Mitochondrial membrane potential (ΔΨm), JC-1 probe; settings: compound at IC50, vs control
# Source text: as §3, §4, §5
# HCT 116 = test: Mitochondrial membrane potential (ΔΨm), JC-1 probe; settings: compound at IC50, vs control
# Source text: as §3, §4, §5
smiles,measurement,setting,value
O=C1/C(=C/c2ccccc2)COc2ccccc21 [Compound 1],Change in RNS levels,SW620,significantly increased RNS levels
same,Change in RNS levels,HT-29,significantly increased RNS levels
same,Decrease in GSH levels,Caco-2 [1],25–30%
same,Decrease in ΔΨm (depolarization),LoVo,~ 20%
same,Decrease in ΔΨm (depolarization),Caco-2 [2],~ 30%
same,Change in mitochondrial membrane potential ΔΨm,HCT 116,no statistically significant changes
